{"source": "patent US4211772A", "about": "“Benzopyran glycoside acetals and ketals” (Laboratoires Sarget, priority 1977, dated 1980)", "key": {"Solubilities in water": {"assay": "Solubilities in water", "type": "physicochemical", "details": "water; read-out: Solubilities in water"}, "capillary resistance": {"test_system": "capillary resistance", "assay": "Capillaroprotecting effects: capillary resistance", "type": "in vivo, male OFA EOPS rats", "experimental": "(§1) Capillaroprotecting effects\nThe capillary resistance was determined by a variant of the method of Charlier et al, Arch. Inter. Physiol."}, "OF1 EOPS mice": {"test_system": "OF1 EOPS mice", "assay": "Acute i.p. toxicity in OF1 EOPS mice", "type": "in vivo", "details": "neutralized borate buffer, over 7 days", "experimental": "The acute toxicity of the compounds of the present invention was determined in mice."}, "carragenin edema": {"test_system": "carragenin edema", "assay": "Anti-inflammatory activity: carragenin edema test", "type": "in vivo", "details": "for % inhibition of carragenin edema: borate buffer pH 7, 24 h; for inhibition in vivo at 75 mg/kg / inhibition in vivo at 100 mg/kg / inhibition in vivo at 150 mg/kg / inhibition in vivo at 200 mg/kg: Rattus norvegicus, ip", "procedure,_shortened": "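Male Wistar EOPS rats receive 0.1 ml of 5% carragenin suspension in physiological serum into the hind-paw metatarsal muscle, with test substance given i.p. in neutralized solution at the same time. Paw edema is measured by plethysmometry at several times after carragenin and reported as % inhibition against pH-matched physiological serum controls.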"}, "capillary permeability": {"test_system": "capillary permeability", "assay": "Capillaroprotecting effects: capillary permeability", "type": "in vivo, conventional male Wistar rats", "experimental": "as §1\nThe capillary permeability was determined by the method of Charlier et al, Arch. Inter. Physiol."}, "Aldose Reductase": {"target": "T1, Aldose Reductase (Bos taurus, UniProt P16116)", "T1 construct": "The enzyme is extracted from beef eye lenses; from tissue; host or cells: beef eye lenses", "assay": "Inhibition of aldose reductase in vitro (enzyme from beef eye lenses, glyceraldehyde substrate)", "type": "biochemical", "details": "in DMF solution, read-out: percentages of inhibition (aldose reductase)", "from_the_text": "Inhibition of Aldose Reductase In Vitro\nThe reoxidation of NADPH coupled to the enzymatic reaction was followed spectrophotometrically at 340 nm."}}, "note": "Read-outs that look alike come from different tables or passages of the source."}
{"smiles": "C[C@@H]1O[C@@H](Oc2c(-c3ccc(O)c(O)c3)oc3cc(O)cc(O)c3c2=O)[C@@H]2OC(C)(C)O[C@@H]2[C@H]1O", "note": "[No. 3, 3-O-(2,3-O,O-isopropylidene-α-L-rhamnosyl)-quercetin]", "values": [{"measurement": "solubility", "setting": "Solubilities in water", "value": 1600, "unit": "µg/mL"}, {"measurement": "% of animals for which the effect is ≥ 25 u cm Hg/h", "setting": "capillary resistance; 50 mg/kg i.p.", "value": 40, "unit": "%"}, {"measurement": "capillary resistance, effect observed", "setting": "capillary resistance; 50 mg/kg i.p.", "value": "19.5 ± 7.4", "unit": "u cm Hg/h"}, {"measurement": "% of animals for which the effect is ≥ 25 u cm Hg/h", "setting": "capillary resistance; 100 mg/kg i.p.", "value": 80, "unit": "%"}, {"measurement": "capillary resistance, effect observed", "setting": "capillary resistance; 100 mg/kg i.p.", "value": "34.75 ± 11.1", "unit": "u cm Hg/h"}, {"measurement": "% of animals for which the effect is ≥ 25 u cm Hg/h", "setting": "capillary resistance; 200 mg/kg i.p.", "value": 100, "unit": "%"}, {"measurement": "capillary resistance, effect observed", "setting": "capillary resistance; 200 mg/kg i.p.", "value": "56 ± 11.3", "unit": "u cm Hg/h"}, {"measurement": "dose until which no mortality resulted", "setting": "OF1 EOPS mice", "value": 400, "unit": "mg/kg"}, {"measurement": "% inhibition of carragenin edema", "setting": "carragenin edema; 75 mg/kg i.p.", "value": 21, "unit": "%"}, {"measurement": "% inhibition of carragenin edema", "setting": "carragenin edema; 100 mg/kg i.p.", "value": 17, "unit": "%"}, {"measurement": "% inhibition of carragenin edema", "setting": "carragenin edema; 150 mg/kg i.p.", "value": 11, "unit": "%"}, {"measurement": "% inhibition of carragenin edema", "setting": "carragenin edema; 200 mg/kg i.p.", "value": 0, "unit": "%"}, {"measurement": "inhibition in vivo at 75 mg/kg", "setting": "carragenin edema; 1 h, pH 7, read-out: % inhibition of carragenin edema, 75 mg/kg i.p., borate buffer pH 7, 1 h", "value": 0, "unit": "%"}, {"measurement": "inhibition in vivo at 75 mg/kg", "setting": "carragenin edema; 1 h, pH 7, read-out: % inhibition of carragenin edema, 75 mg/kg i.p., borate buffer pH 7, 1 h 1/2", "value": 0, "unit": "%"}, {"measurement": "inhibition in vivo at 100 mg/kg", "setting": "carragenin edema; 1 h, pH 7, read-out: % inhibition of carragenin edema, 100 mg/kg i.p., borate buffer pH 7, 1 h", "value": 55, "unit": "%"}, {"measurement": "inhibition in vivo at 100 mg/kg", "setting": "carragenin edema; 1 h, pH 7, read-out: % inhibition of carragenin edema, 100 mg/kg i.p., borate buffer pH 7, 1 h 1/2", "value": 41, "unit": "%"}, {"measurement": "inhibition in vivo at 150 mg/kg", "setting": "carragenin edema; 1 h, pH 7, read-out: % inhibition of carragenin edema, 150 mg/kg i.p., borate buffer pH 7, 1 h", "value": 0, "unit": "%"}, {"measurement": "inhibition in vivo at 150 mg/kg", "setting": "carragenin edema; 1 h, pH 7, read-out: % inhibition of carragenin edema, 150 mg/kg i.p., borate buffer pH 7, 1 h 1/2", "value": 0, "unit": "%"}, {"measurement": "inhibition in vivo at 200 mg/kg", "setting": "carragenin edema; 1 h, pH 7, read-out: % inhibition of carragenin edema, 200 mg/kg i.p., borate buffer pH 7, 1 h", "value": 45, "unit": "%"}, {"measurement": "inhibition in vivo at 200 mg/kg", "setting": "carragenin edema; 1 h, pH 7, read-out: % inhibition of carragenin edema, 200 mg/kg i.p., borate buffer pH 7, 1 h 1/2", "value": 12, "unit": "%"}, {"measurement": "inhibition in vivo at 75 mg/kg", "setting": "carragenin edema; 2 h, pH 7, read-out: % inhibition of carragenin edema, 75 mg/kg i.p., borate buffer pH 7, 2 h", "value": 10, "unit": "%"}, {"measurement": "inhibition in vivo at 100 mg/kg", "setting": "carragenin edema; 2 h, pH 7, read-out: % inhibition of carragenin edema, 100 mg/kg i.p., borate buffer pH 7, 2 h", "value": 30, "unit": "%"}, {"measurement": "inhibition in vivo at 150 mg/kg", "setting": "carragenin edema; 2 h, pH 7, read-out: % inhibition of carragenin edema, 150 mg/kg i.p., borate buffer pH 7, 2 h", "value": 20, "unit": "%"}, {"measurement": "inhibition in vivo at 200 mg/kg", "setting": "carragenin edema; 2 h, pH 7, read-out: % inhibition of carragenin edema, 200 mg/kg i.p., borate buffer pH 7, 2 h", "value": 0, "unit": "%"}, {"measurement": "inhibition in vivo at 75 mg/kg", "setting": "carragenin edema; 3 h, pH 7, read-out: % inhibition of carragenin edema, 75 mg/kg i.p., borate buffer pH 7, 3 h", "value": 6, "unit": "%"}, {"measurement": "inhibition in vivo at 100 mg/kg", "setting": "carragenin edema; 3 h, pH 7, read-out: % inhibition of carragenin edema, 100 mg/kg i.p., borate buffer pH 7, 3 h", "value": 19, "unit": "%"}, {"measurement": "inhibition in vivo at 150 mg/kg", "setting": "carragenin edema; 3 h, pH 7, read-out: % inhibition of carragenin edema, 150 mg/kg i.p., borate buffer pH 7, 3 h", "value": 0, "unit": "%"}, {"measurement": "inhibition in vivo at 200 mg/kg", "setting": "carragenin edema; 3 h, pH 7, read-out: % inhibition of carragenin edema, 200 mg/kg i.p., borate buffer pH 7, 3 h", "value": 0, "unit": "%"}, {"measurement": "inhibition in vivo at 75 mg/kg", "setting": "carragenin edema; 4 h, pH 7, read-out: % inhibition of carragenin edema, 75 mg/kg i.p., borate buffer pH 7, 4 h", "value": 3, "unit": "%"}, {"measurement": "inhibition in vivo at 100 mg/kg", "setting": "carragenin edema; 4 h, pH 7, read-out: % inhibition of carragenin edema, 100 mg/kg i.p., borate buffer pH 7, 4 h", "value": 18, "unit": "%"}, {"measurement": "inhibition in vivo at 150 mg/kg", "setting": "carragenin edema; 4 h, pH 7, read-out: % inhibition of carragenin edema, 150 mg/kg i.p., borate buffer pH 7, 4 h", "value": 2, "unit": "%"}, {"measurement": "inhibition in vivo at 200 mg/kg", "setting": "carragenin edema; 4 h, pH 7, read-out: % inhibition of carragenin edema, 200 mg/kg i.p., borate buffer pH 7, 4 h", "value": 0, "unit": "%"}, {"measurement": "inhibition in vivo at 75 mg/kg", "setting": "carragenin edema; 5 h, pH 7, read-out: % inhibition of carragenin edema, 75 mg/kg i.p., borate buffer pH 7, 5 h", "value": 6, "unit": "%"}, {"measurement": "inhibition in vivo at 100 mg/kg", "setting": "carragenin edema; 5 h, pH 7, read-out: % inhibition of carragenin edema, 100 mg/kg i.p., borate buffer pH 7, 5 h", "value": 19, "unit": "%"}, {"measurement": "inhibition in vivo at 150 mg/kg", "setting": "carragenin edema; 5 h, pH 7, read-out: % inhibition of carragenin edema, 150 mg/kg i.p., borate buffer pH 7, 5 h", "value": 3, "unit": "%"}, {"measurement": "inhibition in vivo at 200 mg/kg", "setting": "carragenin edema; 5 h, pH 7, read-out: % inhibition of carragenin edema, 200 mg/kg i.p., borate buffer pH 7, 5 h", "value": 2, "unit": "%"}, {"measurement": "inhibition in vivo at 75 mg/kg", "setting": "carragenin edema; 6 h, pH 7, read-out: % inhibition of carragenin edema, 75 mg/kg i.p., borate buffer pH 7, 6 h", "value": 10, "unit": "%"}, {"measurement": "inhibition in vivo at 100 mg/kg", "setting": "carragenin edema; 6 h, pH 7, read-out: % inhibition of carragenin edema, 100 mg/kg i.p., borate buffer pH 7, 6 h", "value": 18, "unit": "%"}, {"measurement": "inhibition in vivo at 150 mg/kg", "setting": "carragenin edema; 6 h, pH 7, read-out: % inhibition of carragenin edema, 150 mg/kg i.p., borate buffer pH 7, 6 h", "value": 8, "unit": "%"}, {"measurement": "inhibition in vivo at 200 mg/kg", "setting": "carragenin edema; 6 h, pH 7, read-out: % inhibition of carragenin edema, 200 mg/kg i.p., borate buffer pH 7, 6 h", "value": 1, "unit": "%"}, {"measurement": "inhibition in vivo at 75 mg/kg", "setting": "carragenin edema; read-out: % inhibition of carragenin edema, 75 mg/kg i.p., borate buffer pH 7, 1/2 h", "value": 26, "unit": "%"}, {"measurement": "inhibition in vivo at 100 mg/kg", "setting": "carragenin edema; read-out: % inhibition of carragenin edema, 100 mg/kg i.p., borate buffer pH 7, 1/2 h", "value": 45, "unit": "%"}, {"measurement": "inhibition in vivo at 150 mg/kg", "setting": "carragenin edema; read-out: % inhibition of carragenin edema, 150 mg/kg i.p., borate buffer pH 7, 1/2 h", "value": 26, "unit": "%"}, {"measurement": "inhibition in vivo at 200 mg/kg", "setting": "carragenin edema; read-out: % inhibition of carragenin edema, 200 mg/kg i.p., borate buffer pH 7, 1/2 h", "value": 40, "unit": "%"}, {"measurement": "percentage reduction of capillary permeability", "setting": "capillary permeability; 50 mg/kg i.p.", "value": 21, "unit": "%"}, {"measurement": "percentage reduction of capillary permeability", "setting": "capillary permeability; 100 mg/kg i.p.", "value": 25, "unit": "%"}, {"measurement": "percentage reduction of capillary permeability", "setting": "capillary permeability; 200 mg/kg i.p.", "value": 59, "unit": "%"}, {"measurement": "inhibition at 100 µM", "setting": "Aldose Reductase; 10^-4 mole/l", "value": 100, "unit": "%"}, {"measurement": "inhibition at 10 µM", "setting": "Aldose Reductase; 10^-5 mole/l", "value": 92, "unit": "%"}, {"measurement": "inhibition at 1 µM", "setting": "Aldose Reductase; 10^-6 mole/l", "value": 80, "unit": "%"}, {"measurement": "inhibition at 0.1 µM", "setting": "Aldose Reductase; 10^-7 mole/l", "value": 40, "unit": "%"}]}
